# Target: sirtuin 6 (SIRT6) (Homo sapiens, UniProt Q8N6T7)
# Test: Fluor de Lys deacetylation assay
# Format: biochemical
# Chain of sirtuin 6 (SIRT6) (Q8N6T7 2-355): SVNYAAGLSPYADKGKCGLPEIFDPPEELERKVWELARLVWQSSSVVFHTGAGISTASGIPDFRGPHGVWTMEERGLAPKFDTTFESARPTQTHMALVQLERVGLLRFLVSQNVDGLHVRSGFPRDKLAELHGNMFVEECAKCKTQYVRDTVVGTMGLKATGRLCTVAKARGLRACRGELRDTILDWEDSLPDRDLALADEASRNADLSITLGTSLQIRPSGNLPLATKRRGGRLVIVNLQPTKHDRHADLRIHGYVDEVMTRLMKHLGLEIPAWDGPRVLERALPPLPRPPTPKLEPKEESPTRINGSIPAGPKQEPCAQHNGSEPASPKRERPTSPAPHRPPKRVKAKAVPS
substance,measurement,value
MDL-801-E1,Fluor de Lys deacetylation assay (about 4-fold activation),~ 4 fold

# Source: PMC8148055 (Acta Pharmaceutica Sinica. B, 2020)
